# Results published in patent US20230172882A1, “Method For Treating Pancreatic Cancer” (Lantern Pharma Inc., priority 2020, published 2023).
# What was measured:
# [1] = tested on: pancreatic cancer cell lines; experiment: Cell viability, first study of 4 pancreatic cancer cell lines, 72 h; assay type: cell-based
# Procedure: (§1) Individual cell lines were treated with LP-184 for 72 hours and cell viability was assayed. IC50 values were generated from dose response curves plotted in GraphPad Prism.
# [2] = tested on: pancreatic cancer cell lines; experiment: Cell viability, second study of pancreatic cancer cell lines, 72 h; assay type: cell-based; conditions: treated 72 hours, range across cell lines (FIG. 2), read-out: cytotoxicity in terms of IC50 value
# Procedure: as §1
# [3] = tested on: Capan-1 cell line derived xenograft tumors; experiment: Capan-1 cell line derived xenograft tumors in SCID mice; assay type: in vivo; conditions: 3 mg/kg intraperitoneal, thrice weekly for 3 weeks; end of study period, 60 days
# Procedure: All animal studies were carried out in compliance with National Institutes of Health Guidelines for animals. The doses were selected to be tolerated in xenografts. Capan-1 cell line derived xenograft tumors were implanted in SCID mice and treated either with (a) vehicle control of 95% saline/5% ethanol (N=3) or (b) 3 mg/kg LP-184 (N=5) administered by intraperitoneal injection over thrice weekly doses for 3 weeks. In other words, one group was treated with LP-184 and the other group was treated with the vehicle control.
substance,measurement,setting,value
HydroxyUreaMethyl Acylfulvene [LP-184],potency in pancreatic cancer cell lines,"[1]; FIG. 1 and FIG. 2, 72 hours",nanomolar potency
same,IC50,"[1]; first study of 4 pancreatic cancer cell lines, treated 72 hours, range across cell lines (FIG. 1), read-out: cytotoxicity in terms of IC50 values",110 to 310 nM
same,IC50,[2],130 to 180 nM
same,tumor volume growth / tumor regression,[3],Complete tumor regression
